Experimental findings from patent publication US20200148635A1 (priority 2017, published 2020) are described below.

In assay [1] the test system is Pyricularia oryzae. Put plainly: microbe, parasite or virus in culture. The assay is classed as cell-based. As to conditions: 168 h, read-out: control compared to the untreated check.
The subject of assay [2] is Alternaria solani. Kind of assay: In vitro test Alternaria solani (early blight of tomato/potato), radial growth on Potato Dextrose Agar. In kind it is cell-based. The note with it: 168 h, agar plate, 25° C., seven days, read-out: control compared to the untreated check. The protocol: Alternaria solani (early blight of tomato/potato): Compounds were dissolved in 0.3% DMSO and then added to Potato Dextrose Agar medium just prior to dispensing it into Petri dishes. 5 mL medium with compound in the desired concentration was dispensed into 60 mm sterile Petri-plates. After solidification each plate was seeded with 5 mm size mycelial disc taken form periphery of actively growing virulent culture plate. Plates were incubated in growth chambers at 25° C. temperature and 60% relative humidity for seven days and radial growth was measured.

The subject of assay [3] is Fusarium culmorum. Put plainly: In vitro test Fusarium culmorum (foot rot of cereals), radial growth on Potato Dextrose Agar. The assay is classed as cell-based. As to conditions: 300 ppm, agar plate, 25° C., seven days. The protocol: Fusarium culmorum (Foot Rot of Cereals):
Compounds were dissolved in 0.3% DMSO and then added to Potato Dextrose Agar medium just prior to dispensing it into petri dishes. 5 mL medium with compound in the desired concentration was dispensed into 60 mm sterile Petri-plates. After solidification each plate was seeded with 5 mm size mycelial disc taken form periphery of actively growing virulent culture plate. Plates were incubated in growth chambers at 25° C. temperature and 60% relative humidity for seven days and radial growth was measured.

Assay [4] relates to Rhizoctonia solani. Put plainly: In vitro test Rhizoctonia solani (rice sheath blight/potato black scurf), radial growth on Potato Dextrose Agar. In kind it is cell-based. The note with it: 168 h, agar plate, 25° C., seven days, read-out: control compared to the untreated check. On the procedure: Rhizoctonia solani (Rice Sheath Blight/Potato Black Scurf):
Compounds were dissolved in 0.3% DMSO and then added to Potato Dextrose Agar medium just prior to dispensing it into Petri dishes. 5 mL medium with compound in the desired concentration was dispensed into 60 mm sterile Petri-plates. After solidification each plate was seeded with 5 mm size mycelial disc taken form periphery of actively growing virulent culture plate. Plates were incubated in growth chambers at 25° C. temperature and 60% relative humidity for seven days and radial growth was measured.

Assay [5] relates to Septoria lycopersici. Kind of assay: In vitro test Septoria lycopersici (leaf spot of tomato), radial growth on Potato Dextrose Agar. The assay is classed as cell-based. The note with it: 168 h, agar plate, 25° C., seven days, read-out: control compared to the untreated check. The protocol:
Septoria lycopersici (Leaf Spot of Tomato):
Compounds were dissolved in 0.3% DMSO and then added to Potato Dextrose Agar medium just prior to dispensing it into Petri dishes. 5 mL medium with compound in the desired concentration was dispensed into 60 mm sterile Petri-plates. After solidification each plate was seeded with 5 mm size mycelial disc taken form periphery of actively growing virulent culture plate. Plates were incubated in growth chambers at 25° C. temperature and 70% relative humidity for seven days and radial growth was measured.

Assay [6] concerns Phakopsora pachyrhizi. Kind of assay: Greenhouse Phakopsora pachyrhizi test in soybean, preventive. The note with it: preventive spray on soybean plants, inoculated one day after treatment with Phakopsora pachyrhizi, read-out: control compared to the untreated check. The assay is classed as in vivo. The protocol:
Phakopsora pachyrhizi Test in Soybean
Compounds were dissolved in 2% DMSO/Acetone and then mixed with water to the calibrated spray volume of 50 mL and poured into the spray bottles for further applications.
To test the preventive activity of compounds, healthy young soybean plants raised in the greenhouse were sprayed with active compound preparation at the stated application rates inside the spray cabinets using hallowcone nozzles. One day after treatment, the plants were inoculated with spore suspension containing 2.1×10^6 Phakopsora pachyrhizi inoculum. The inoculated plants were then kept in greenhouse chamber at 25° C. temperature and 90% relative humidity for disease expression.
A visual assessment of compound's performance was carried out by rating the disease severity (0-100% scale) on treated plants on 3, 7, 10 and 15 days after application. Efficacy (% control) of the compounds was calculated by comparing the disease rating in the treatment with the one of the untreated control. The sprayed plants were also assessed for compound's plant compatibility by recording symptoms like necrosis, chlorosis and stunting.

The subject of assay [7] is Bortytis cinera. Put plainly: Greenhouse Bortytis cinera test in tomato, preventive. The assay is classed as in vivo. The note with it: Solanum lycopersicum, preventive spray on tomato plants, inoculated one day after treatment with Bortytis cinera, read-out: control compared to the untreated check. The protocol:
Bortytis cinera Test in Tomato
Compounds were dissolved in 2% DMSO/Acetone and then mixed with water to calibrated spray volume of 50 mL. This 50 mL spray solution was poured into the spray bottles for further applications.
To test the preventive activity of compounds, healthy young tomato plants raised in the greenhouse were sprayed with active compound preparation at the stated application rates inside the spray cabinets using hallowcone nozzles. One day after treatment, the plants were inoculated with spore suspension (2% Malt) containing 1.2×10^6 Bortytis cinera inoculum. The inoculated plants were then kept in greenhouse chamber at 18-20° C. temperature and 90-100% relative humidity for disease expression.
A visual assessment of compound's performance was carried by rating the disease severity (0-100% scale) on treated plants on 3, 7, 10 and 15 days after application. Efficacy (% control) of the compounds was calculated by comparing the disease rating in the treatment with untreated control. The sprayed plants were also assessed for compound's phytotoxic effects by recording symptoms like necrosis, chlorosis and stunting.

For the compound `CCN=S(=O)(CCC(C)C)c1cccc(Oc2cc(Cl)c(N=CN(C)CC)cc2C)c1` (centres unmarked) [Compound 25], the inhibition of growth at 300 ppm in assay [1] and in assay [2] was more than 70% each time. Further, the “control compared to the untreated check” value in assay [3] worked out at 70%.

On to `CCN(C)C=Nc1cc(C)c(Oc2cccc(S(=O)(=NC(=O)C(F)(F)F)C(C)C)c2)cc1Cl` (centres unmarked) [Compound 10], for which the “control compared to the untreated check” value in assay [3] came to 70%.

With `CCN(C)C=Nc1cc(C)c(Oc2ccccc2S(=N)(=O)C(F)(F)F)cc1Cl` (centres unmarked) [Compound 147], the “control compared to the untreated check” value in assay [3] is 70%.

As for `CCN(C)C=Nc1cc(C)c(S(C)(=O)=NCc2cccc(Cl)c2)cc1Cl` (centres unmarked) [Compound 90], the inhibition of growth at 300 ppm in assay [4], in assay [5] and in assay [2] was more than 70% in each case. For the same compound, in assay [6], the pest or weed control at 500 ppm is more than 70%.

For `CCN(C)C=Nc1cc(Br)c(N=S(C)(=O)c2cccc(OC)c2)nc1C` (centres unmarked) [Compound 87], the pest or weed control at 500 ppm in assay [7] is more than 70%.

With `CCN=S(C)(=O)c1cccc(Nc2cc(C)c(N=CN(C)CC)cc2C)c1` (centres unmarked) [Compound 140], the inhibition of growth at 300 ppm in assay [4], in assay [5] and in assay [2] was more than 70% in each case. Further, in assay [3], the “control compared to the untreated check” value worked out at 70%.

Regarding `CCN(C)C=Nc1cc(C)c(S(C)(=O)=Nc2ccccc2)cc1Cl` (centres unmarked) [Compound 17], the inhibition of growth at 300 ppm in assay [4], in assay [5] and in assay [2] was more than 70% each time.

As for `CCN(C)C=Nc1cc(C)c(S(C)(=O)=NCc2cccc(OC(F)(F)F)c2)cc1Cl` (centres unmarked) [Compound 92], the inhibition of growth at 300 ppm in assay [4], in assay [5] and in assay [2] was more than 70% throughout.

Consider `CCN(C)C=Nc1cc(C)c(N=S(=O)(CCC(C)C)c2cccc(OC)c2)cc1C` (centres unmarked) [Compound 76], for which, in assay [1], the inhibition of growth at 300 ppm is more than 70%. The pest or weed control at 500 ppm in assay [7] and in assay [6] was more than 70% in each case.

Take `CCN(C)C=Nc1cc(C)c(S(=O)(CC(C)C)=Nc2cc(C(F)(F)F)cc(C(F)(F)F)c2)cc1Cl` (centres unmarked) [Compound 85]: the pest or weed control at 500 ppm in assay [7] and in assay [6] was more than 70% in each case.

As to `CCN(C)C=Nc1cc(C)c(Oc2cccc(S(=O)(=NCC3CC3)C(F)(F)F)c2)cc1Cl` (centres unmarked) [Compound 144], the “control compared to the untreated check” value in assay [3] came to 70%.

As for `CCN(C)C=Nc1cc(C)c(Oc2cccc(S(C)(=O)=Nc3ccccc3)c2)cc1C` (centres unmarked) [Compound 98], the pest or weed control at 500 ppm in assay [7] is more than 70%.

For the compound `CCN(C)C=Nc1cc(C)c(S(=O)(CC(C)C)=Nc2ccc(N3CCOCC3)cc2)cc1Cl` (centres unmarked) [Compound 113], the inhibition of growth at 300 ppm in assay [4], in assay [5] and in assay [2] was more than 70% in each case.

Take `CCN(C)C=Nc1cc(C)c(N=S(C)(=O)c2cccc(OC)c2)cc1C` (centres unmarked) [Compound 74]: in assay [1], the inhibition of growth at 300 ppm is more than 70%. The pest or weed control at 500 ppm in assay [7] and in assay [6] was more than 70% each time.

For the compound `CCN(C)C=Nc1cc(C)c(S(=O)(CC(C)C)=Nc2ccsc2)cc1Cl` (centres unmarked) [Compound 114], the inhibition of growth at 300 ppm in assay [4], in assay [5] and in assay [2] was more than 70% in each case. Also, the pest or weed control at 500 ppm in assay [6] was more than 70%.

For the compound `CCN(C)C=Nc1cc(C)c(Oc2ccc(S(C)(=O)=NCC3CC3)cc2)cc1Cl` (centres unmarked) [Compound 127], the inhibition of growth at 300 ppm in assay [1] and in assay [2] was more than 70% throughout. Also, in assay [7], the pest or weed control at 500 ppm is more than 70%.

In the case of `CCN(C)C=Nc1cc(Br)c(N=S(=O)(CCC(C)C)c2cccc(OC)c2)nc1C` (centres unmarked) [Compound 77], the pest or weed control at 500 ppm in assay [7] and in assay [6] was more than 70% each time.

Take `CCN(C)C=Nc1cc(C)c(S(=O)(CC(C)C)=Nc2ccc(OC)c(OC)c2)cc1Cl` (centres unmarked) [Compound 124]: the inhibition of growth at 300 ppm in assay [4], in assay [5] and in assay [2] was more than 70% each time.

For `CCN(C)C=Nc1cc(C)c(Oc2cccc(S(C)(=O)=NCc3ccccc3)c2)cc1Cl` (centres unmarked) [Compound 21], the pest or weed control at 500 ppm in assay [7] and in assay [6] was more than 70% each time. In addition, the inhibition of growth at 300 ppm in assay [4] and in assay [2] was more than 70% in each case.

In the case of `CCN(C)C=Nc1cc(C)c(S(=O)(CC)=NC(=O)c2cccc(OC)c2)cc1Cl` (centres unmarked) [Compound 50], the pest or weed control at 500 ppm in assay [7] and in assay [6] was more than 70% each time. For the same compound, the inhibition of growth at 300 ppm in assay [4] and in assay [2] was more than 70% throughout.

Take `CCN(C)C=Nc1cc(C)c(Oc2cccc(S(C)(=O)=NCC(F)(F)F)c2)cc1C` (centres unmarked) [Compound 96]: in assay [7], the pest or weed control at 500 ppm is more than 70%. Moreover, the inhibition of growth at 300 ppm in assay [4], in assay [5] and in assay [2] was more than 70% throughout.

For the compound `CCN(C)C=Nc1cc(C)c(N=S(C)(=O)c2ccccc2)cc1C` (centres unmarked) [Compound 4], the “control compared to the untreated check” value in assay [3] was 70%.

Consider `CCN=S(=O)(c1ccccc1Oc1cc(Cl)c(N=CN(C)CC)cc1C)C(F)(F)F` (centres unmarked) [Compound 150], for which the inhibition of growth at 300 ppm in assay [4] and in assay [2] was more than 70% throughout. Also, the “control compared to the untreated check” value in assay [3] worked out at 70%. Also, in assay [6], the pest or weed control at 500 ppm is more than 70%.

Turning to `CCN(C)C=Nc1cc(C)c(Cc2ccc(S(C)(=N)=O)cc2)cc1C` (centres unmarked) [Compound 128], the inhibition of growth at 300 ppm in assay [1] and in assay [2] was more than 70% in each case. Further, the pest or weed control at 500 ppm in assay [7] was more than 70%.

For the compound `CCN(C)C=Nc1cc(C)c(S(=O)(CC(C)C)=Nc2ccccc2)cc1Cl` (centres unmarked) [Compound 86], the inhibition of growth at 300 ppm in assay [1] was more than 70%. For the same compound, the pest or weed control at 500 ppm in assay [7] and in assay [6] was more than 70% each time.
